# Measured values from patent US8664272B2, “Composition and methods for the treatment of myelodysplastic syndrome and acute myeloid leukemia” (Temple University—Of the Commonwealth System of Higher …, priority 2006, dated 2014).
# Key:
# [1] = system: myelodysplastic syndrome patients; settings: cited from earlier work
# [2] = system: HL-60 cell line; settings: cited from earlier work
# [3] = system: HL-60 cells; assay: Cytotoxicity of drug combinations towards HL-60 cells (WST-1 assay, median-effect analysis); format: cell-based, human; settings: single agent, concentrations higher than 500 nM, 72 h
# Method: Human promyelocytic leukemia cell line HL-60 were obtained from American Type Culture Collection. The cells were maintained in RPMI 1640 medium supplemented with 10% FBS, penicillin, (50 U/mL), streptomycin, (50 μg/mL). Cell cultures were maintained at 37° C. in 5% CO2 humidified atmosphere. Cells were counted in a hemocytometer, using Trypan blue staining as an indicator of viability.
# The test compound, or combination of compounds, was added in 50 μL volume into flat-bottom 96-well plates. Control cultures received the same amount of medium without the test compound. HL-60 cells (1×10^6 cells/mL) were suspended in growth medium and dispensed in 50 μL aliquots into the well containing the compound. The plates were incubated at 37° C. (5% CO2) for 72 h. Cytotoxicity was then determined using the WST-1 assay. In the WST-1 assay cell viability is determined by incubating the cells for a further period of 0.5 to 4 h in the presence of the tetrazolium salt 4-(3-(4-iodophenyl)-2-(4-nitrophenyl)-2H-5-tetrazolio]-1,3-benzene disulfonate. In the presence of viable cells, the compound is reduced by mitochondrial dehydrogenases to a fluorescent product. The absorbance was measured against a background control without cell, in a microtiter plate reader (Bio-Tek Instruments, Elx 800) at 450 nm with a reference wavelength of 630 nm. […]
# [4] = subcutaneous 75 mg/m^2/day for 7 days every 4 weeks, phase 3
compound,measurement,setting,value
"Nc1ncn([C@@H]2O[C@H](CO)[C@@H](O)[C@H]2O)c(=O)n1 [Azacitidine, 5-azacytidine]",significant side-effects,[1]; clinical trials,"nausea, anemia, thrombocytopenia, vomiting, pyrexia, leukopenia, diarrhea, fatigue, injection site erythema, constipation, neutropenia, and ecchymosis"
same,patients responded completely,[1]; [4],5%
same,patients responded partially,[1]; [4],10%
same,response rate,[1]; [4],15%
same,apoptosis,[2],induces apoptosis
"COc1cc(OC)c(/C=C/S(=O)(=O)Cc2ccc(OC)c(NCC(=O)[O-])c2)c(OC)c1.[Na+] [Compound A, (E)-2-(5-((2,4,6-trimethoxystyrylsulfonyl)methyl)-2-methoxyphenylamino)acetic acid sodium salt]",cell death,[3],virtually complete cell death
